For data set [1], the system named is M14 cells. The experiment in a line: Colony formation assay. The class given is cell-based, human. The procedure: Ten days after seeding, a solution of 2% methylene blue in 95% ethanol was added to the obtained monolayer and incubated for at least 30 minutes. The plates were then washed with ddH2O and the colonies (at least 50 cells) were counted. The results were expressed as a percentage of colonies formed with respect to the number of cells seeded. Cell survival rate was calculated as % compared to control cells.

The subject of data set [2] is M14 cells. The experiment in a line: Intracellular ROS analysis by FACS (H2DCF-DA). The class given is cell-based, human. To be noted: EO 10 μg/ml for 24 hours; H2O2 5 mM. As for the experimental part: The generation of ROS species (reactive oxygen species) was analysed by FACS, using the probe sensitive to the oxidant 2 ‘, 7’-dichlorodihydrofluorescein (H2DCF-DA). The C. zeylanicum EO was administered at a dose of 10 μg/ml for 24 hours. […] H2O2 at a concentration of 5 mM was used as a control for the generation of ROS.
In general terms: A flow cytometer gives signals particle by particle.

The conditions of data set [3]: features known in the art; cited from earlier work.
The conditions of data set [4]: rats; cited from earlier work.
In another data set the test system is melanoma. To be noted: phase III study; cited from earlier work.
Data set [5] deals with advanced melanoma, untreated brain metastases, and other solid tumours. To be noted: phase I study; cited from earlier work.

SMILES strings stand for the structures.

Turning to `CC/C(=C(\c1ccccc1)c1ccc(OCCN(C)C)cc1)c1ccccc1` [TAM, Tamoxifen], the “survival of M14 cells compared to control” value with M14 cells [1] (EO 10 μg/ml, TAM 0, 1 μM, 24 hours) is “no significant differences in survival compared to control”.

Turning to `OO` [H2O2, hydrogen peroxide], the “oxidative stress (intracellular ROS) in M14 cells compared with PBMCs” value with M14 cells [2] is “greater oxidative stress”.

Consider `O=c1ccc2ccccc2o1` [Coumarin], for which the “toxicity (liver, kidney) / general safety” value in data set [3] was “can cause liver and kidney damage”.

On to `C=CCc1ccc2c(c1)OCO2` [Safrole], for which the carcinogenicity result in data set [4] is listed as “weak carcinogenicity”.

For the compound `CC(=O)O[C@H]1C(=O)[C@@]2(C)[C@H]([C@H](OC(=O)c3ccccc3)[C@]3(O)C[C@H](OC(=O)[C@H](O)[C@@H](NC(=O)c4ccccc4)c4ccccc4)C(C)=C1C3(C)C)[C@]1(OC(C)=O)CO[C@@H]1C[C@@H]2O` [Taxol, Paclitaxel], the “induction of cell death in M14 cells” value in the data set on M14 cells [1] (24 hours treatment, EO 10 μg/ml) is reported as “less than 10%”.

Regarding `CC(C)(C)c1nc(-c2cccc(NS(=O)(=O)c3c(F)cccc3F)c2F)c(-c2ccnc(N)n2)s1` [dabrafenib], in the data set on melanoma, the “ORR (objective response rate)” value was 53% and the “median PFS (progression free survival)” value is 5.1 months. Further, the ORR in data set [5] is 47%.

Regarding `O=CC=Cc1ccccc1` [cinnamaldehyde], the “cell survival (colonies vs untreated control)” value in the data set on M14 cells [1] (M14 cells, 24 hours treatment) is reported as 64.3%.

(Values after US20240245743A1, “USE OF CINNAMOMUM ZEYLANICUM ESSENTIAL OIL (EO) AS HUMAN MELANOMA CELLS DEATH INDUCER AND AS POSSIBLE ADJUVANT IN PHARMACOLOGICAL THERAPIES” (CONSIGLIO NAZIONALE DELLE RICERCHE, priority 2021, published 2024).)
